Measured values: patent EP0330874A2, “Antibacterial and antitumor agents LL-E33288 epsilon-I and LL-E33288-epsilonBr, with processes and intermediates for producing said agents” (AMERICAN CYANAMID COMPANY, priority 1988, dated 1989)

Tested on: lymphocytic leukemia P388
Test: Lymphocytic Leukemia P388 Test
Type: in vivo, BDFl mice
Conditions: for Median Survival: mice, 30 days observation; for T/C x 100: ratio of survival time treated/control, 125 or over = significant
Excerpt: Certain in vivo testing systems and protocols have been developed by the National Cancer Institute for testing compounds to determine their suitability as antineoplastic agents. These have been reported in "Cancer Chemotherapy Reports", Part III, Volume 3, No. 2 (1972), Geran, et al. These protocols have established standardized screening tests which are generally followed in the field of testing for antitumor agents. Of these systems, lymphocytic leukemia P388 is particularly significant to the present invention. This neoplasm is utilized for testing as transplantable tumors in mice. Significant antitumor activity shown in this protocol by a percentage increase of mean survival times of the treated(T) animals over the control(C) animals is indicative of similar results in human leukemias and solid tumors.
The animals used were BDFl mice, all of one sex, weighing a minimum of 17 g and all within a 3 g weight range. There were 5 or 6 mice per test group. The tumor transplant was by intraperitoneal injection of 0.5 ml of dilute ascitic fluid containing 10⁶ cells of lymphocytic leukemia P388. The test compounds were administered intraperitoneally at a volume of 0.5 ml in 0.2% Klucel in normal saline on days 1, 5 and 9 (relative to tumor inoculation) at the indicated doses. The mice were weighed and survivors recorded on a regular basis for 30 days. The median survival time and the ratio of survival time for treated(T)/control(C) animals were calculated. The positive control compound for LL-E33288ε-I was 1,4-dihydroxy-5,8-bis[[2-(2-hydroxyethylamino)ethyl]amino]anthraquinone, dihydrochloride (U. S. Patent 4,197,249). The positive control compound for dethiomethylγ₁-I was 1,4-bis[2-(2-hydroxyethylamino)ethylamino]-5,8-dihydroxyanthroquinone dihydrochloride, Lederle Laboratories, Pearl River, New York ("Novantrone"). The controls were given as an intraperitoneal injections in 0.5 ml of 0.2% Klucel on days 1, 5 and 9 at the indicated doses.
If T/C X 100 (%) is 125 or over, the tested compound is considered to have significant anti-tumor activity.

[1] = Dose 0.4 mg/kg intraperitoneally on days 1, 5 and 9
[2] = Dose 0.8 mg/kg intraperitoneally on days 1, 5 and 9
[3] = Dose 1.6 mg/kg intraperitoneally on days 1, 5 and 9

SMILES: Cl.Cl.O=C1c2c(O)ccc(O)c2C(=O)c2c(NCCNCCO)ccc(NCCNCCO)c21 [Positive Control, 1,4-dihydroxy-5,8-bis[[2-(2-hydroxyethylamino)ethyl]amino]anthraquinone, dihydrochloride]
- Median Survival [1]: 21.5 days
- T/C x 100 [1]: 215%
- Median Survival [2]: >30 days
- T/C x 100 [2]: >300%
- Median Survival [3]: 27 days
- T/C x 100 [3]: 270%
